Results taken from paper PMC8667045, “Into Deep Water: Optimizing BCL6 Inhibitors by Growing into a Solvated Pocket” (Journal of Medicinal Chemistry, 2021).
“And” between values parts separate entries of the source, which are not always exact repeats. Identical values can stand only once. Like-named read-outs stand apart in the source and are kept apart here.

How the values were obtained:
[1] = Protein binding by equilibrium dialysis; assay type: in vitro ADME, mouse
BCL6 BTB domain [2] = target: T1, BCL6 BTB domain (Homo sapiens, UniProt P41182); assay: biochemical
Protocol: Supplementary experimental: protein production, purification and crystallography
3C protease cleavage site.
used without cleaving the tag, as a 6His was needed to bind to the anti-6His-Terbium antibody. For
For both plasmid constructs described above, transformed BL21-AI E. coli cells were grown in LB
carried out at 18 °C for 18 hours. Cells were harvested by centrifugation (5500 g for 30 minutes at 4
oC) and stored at -80 °C.
Cells were re-suspended in a buffer composed of 20 mM Tris pH 8, 250 mM NaCl, 1 mM MgCl2, 0.5
Cells were lysed by sonication followed by centrifugation at 21,000 g for 45 minutes at 4 °C. […]
The final protein was assessed for purity
and molar mass by SDS-PAGE and high-resolution mass spectrometry, respectively.
directly eluted from the HisTrap FF column without HRV-3C treatment, and submitted to Superdex75
gel filtration as described above. […]
2. Supplementary experimental: biological assay conditions
IC50 values were determined using
a sigmoidal four-parameter logistic fit equation.

NMR solubility assay = assay type: physicochemical; conditions: HEPES buffer, 5% DMSO, room temperature
Protocol: 3. Supplementary experimental: physicochemical assays
The plate was then sealed and incubated at room temperature for 20 hours, without shaking. The plate was centrifuged again for 1 minute at […]
spectrometer equipped with a 5 mm TCI-CryoProbe. […]
deuterated solvent. […] All NMR data were acquired at the […]
contained 16k time-domain data points. Relaxation delay was set to 20 sec. […]

OCI-Ly1 = assay: 14 day cell viability assay (CellTiter Glo); assay type: cell-based; conditions: Homo sapiens, BCL6-high, 14 days of treatment
Measured logD7.4 = assay type: physicochemical; conditions: pH 7.4
MM.1S = assay: 14 day cell viability assay (CellTiter Glo); assay type: cell-based; conditions: Homo sapiens, MM1.S; BCL6-low, 14 days of treatment
OCI-Ly3 = assay: 14 day cell viability assay (CellTiter Glo); assay type: cell-based; conditions: Homo sapiens, BCL6-low, 14 days of treatment
SU-DHL-4 = assay: 14 day cell viability assay (CellTiter Glo); assay type: cell-based; conditions: Homo sapiens, BCL6-high, 14 days of treatment
[3] = PAMPA passive permeability pH 7.4; conditions: pH 7.4, passive permeability Pe
[4] = In vivo pharmacokinetic study in female Balb/c mice; conditions: mouse; for Cmax: blood
Protocol: 5. Supplementary experimental: in vivo PK and PD experiments
All procedures were in accordance with UK Home Office regulations under the Animals (Scientific […]
accordance with published guidelines17. Mice were allowed access to food and water ad libitum.
5.1In vivo pharmacokinetic studies
All experiments were conducted in accordance with the UKCC guidelines for animal experimentations17. Animals were adapted to laboratory conditions for at least 1 week prior to dosing and were allowed food and water ad libitum. CCT369347 (25) was administered iv or po (mouse, 0.1 mL/10 g in 10% DMSO, 5% tween 20 in saline); Blood samples were collected in […]
collection together with a standard curve and quality controls spiked in control blood. Samples were reconstituted in a Water:MeOH mixture containing internal standard as previously described […]
Following centrifugation, extracts were analyzed by multiple reaction monitoring of precursor and product ions by ESI-LCMS/MS on either a Waters (Milford, MA, USA) Xevo TQ-S or Sciex (Framingham, MA, USA) QTrap6500 following gradient separation with 0.1% […]
Quantitation was carried out with an external calibration. Quality controls were […]
Pharmacokinetic parameters were derived from noncompartmental analysis using Phoenix Pharsight. Non compartmental analysis (model 200

SU-DHL-6 = assay: 14 day cell viability assay (CellTiter Glo); assay type: cell-based; conditions: Homo sapiens, BCL6-high, 14 days of treatment
BCL6 BTB domain [5] = target: T1, BCL6 BTB domain; assay: SPR assay, immobilised BCL6 BTB protein (Biacore T200); assay type: binding; design: made in house; host or cells: E. coli BL21-AI
[6] = female, Balb/c, whole blood, iv, 1 mg/kg, IV 1 mg/kg, individual animals
[7] = female, Balb/c, whole blood, po, 5 mg/kg, PO 5 mg/kg, individual animals
[8] = IV 1 mg/kg, individual animals, 1 mg/kg
[9] = PO 5 mg/kg, individual animals, 5 mg/kg

For `Cn1c(=O)cc(NC(C)(C)c2ncc(C3CC3)cn2)c2cc(Nc3ccnc(Cl)c3C#N)ccc21` [Compound 25, 2-Chloro-4-((4-((2-(5-cyclopropylpyrimidin-2-yl)propan-2-yl)amino)-1-methyl-2-oxo-1,2-dihydroquinolin-6-yl)amino)nicotinonitrile], the “free in mouse plasma” value [1] was 1.3%, the IC50 (BCL6 BTB domain [2]; BCL6 TR-FRET Geo Mean IC50, geometric mean of n replicates, supplement) was 30 nM and the IC50 (BCL6 BTB domain [2]; TR-FRET IC50 individual replicates, single replicates, italic values used 10nM BCL6, otherwise 1nM BCL6) was 40 nM and 20 nM (2×) and 30 nM (2×). The “BCL6 TR-FRET pIC50 mean” value (BCL6 BTB domain [2]; mean of n replicates) was 7.58 and 7.583, the IC50 (BCL6 BTB domain [2]; read-out: BCL6 TR-FRET Geo Mean IC50, geometric mean of n replicates, supplement) was 26.1 nM and the solubility at 20 h (NMR solubility assay) was 30 µM and 29 µM. For the same molecule, the GI50 (OCI-Ly1) was 1680 nM, the logD (Measured logD7.4) was 2.7 and the GI50 (MM.1S) was > 10 µM. For the same molecule, the GI50 (OCI-Ly3) was > 10 µM, the GI50 (SU-DHL-4) was 3.45 µM and the PAMPA7.4 [3] was 35 x10^-6 cms^-1. The clearance ([4]; female, Balb/c, whole blood, iv, 1 mg/kg, 1 mg kg^–1 i.v., mean, read-out: clearance (CL)) was 24 mL/min/kg, the Cmax [4, 6] was 443 nM and the AUC(0-inf) [4, 6] was 1.38 µM·h. For the same molecule, the AUC(0-t) [4, 6] was 1.28 µM·h, the clearance ([4]; female, Balb/c, whole blood, iv, 1 mg/kg, IV 1 mg/kg, individual animals, read-out: CL) was 24.9 mL/min/kg and the Tmax ([4]; female, Balb/c, whole blood, iv, 1 mg/kg, IV 1 mg/kg, individual animals, read-out: Tmax) was 0.08 h. The Vd ([4]; female, Balb/c, whole blood, iv, 1 mg/kg, IV 1 mg/kg, individual animals, read-out: Vss) was 9.43 L/kg, the Cmax [4, 7] was 347 nM and the AUC(0-inf) [4, 7] was 1.44 µM·h. It also gave an AUC(0-t) [4, 7] of 1.35 µM·h, a Tmax ([4]; female, Balb/c, whole blood, po, 5 mg/kg, PO 5 mg/kg, individual animals, read-out: Tmax) of 2 h and a bioavailability ([4]; female, Balb/c, whole blood, po, 5 mg kg^–1 p.o. vs 1 mg kg^–1 i.v.) of 29%. For the same molecule, the “toxicity in PK study” value ([4]; 1 mg kg^–1 i.v. and 5 mg kg^–1 p.o.) was “no toxicity was observed”, the Cmax [4, 8] was 521 nM and 471 nM and the AUCINF [4, 8] was 1450 nmol·h/L and 1416 nmol·h/L. The AUClast [4, 8] was 1395 nmol·h/L and 1344 nmol·h/L, the CL [4, 8] was 23.7 mL/min/kg and 24.2 mL/min/kg and the HL_Lambda_z [4, 8] was 7.99 h and 5.93 h and 6.83 h. The Vss [4, 8] was 6.96 L/kg and 7.81 L/kg, the Cmax [4, 9] was 382 nM and 427 nM and the AUCINF [4, 9] was 1848 nmol·h/L and 1279 nmol·h/L. The AUClast [4, 9] was 1534 nmol·h/L and 1233 nmol·h/L, the HL_Lambda_z [4, 9] was 1.33 h and 2.12 h and 1.14 h and the Tmax [4, 9] was 1 h. The GI50 (SU-DHL-6) was 2550 nM, the Kd (BCL6 BTB domain [5]; individual runs, Langmuir plot, 1:1 binding model, read-out: SPR KD) was 277 nM and 282 nM and 198 nM and 201 nM and the Kd (BCL6 BTB domain [5]; mean of four runs, read-out: SPR KD mean value) was 236 nM. For the same molecule, the “SPR pKd” value (BCL6 BTB domain [5]; mean, +/- SEM where printed) was 6.63.
